Results published in patent US8686003B2, “Tissue non-specific alkaline phosphatase inhibitors and uses thereof for treating vascular calcification” (Sanford-Burnham Medical Research Institute, priority 2007, dated 2014).
Entries after “also recorded” stand apart in the source; their conditions may differ. Read-outs that look alike come from different tables or passages of the source.

Key:
[1] = target: T1, human TNAP (Homo sapiens, UniProt P05186); assay: Enzyme kinetic experiments, Ki and mechanism of TNAP inhibition; format: biochemical
T1 construct: made in house; host or cells: COS-1 cells, transient expression; dialyzed serum-free conditioned medium
T1 sequence (P05186 18-502 limits assumed): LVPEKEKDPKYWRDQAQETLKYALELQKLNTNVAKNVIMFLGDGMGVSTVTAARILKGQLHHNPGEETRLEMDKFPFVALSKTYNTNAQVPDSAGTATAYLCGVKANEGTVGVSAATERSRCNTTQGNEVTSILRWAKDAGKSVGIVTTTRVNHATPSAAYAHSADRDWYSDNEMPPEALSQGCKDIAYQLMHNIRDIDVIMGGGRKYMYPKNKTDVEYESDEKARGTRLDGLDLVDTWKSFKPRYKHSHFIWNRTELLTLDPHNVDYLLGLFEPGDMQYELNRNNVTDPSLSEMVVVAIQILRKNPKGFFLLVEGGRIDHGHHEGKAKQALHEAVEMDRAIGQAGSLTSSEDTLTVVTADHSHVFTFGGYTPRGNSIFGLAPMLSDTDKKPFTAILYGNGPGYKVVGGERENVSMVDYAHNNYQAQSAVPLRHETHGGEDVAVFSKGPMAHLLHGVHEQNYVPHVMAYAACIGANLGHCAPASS
Description: Expression plasmids containing a secreted epitope-tagged TNAP, PLAP and IAP were transfected into COS-1 cells for transient expression using a standard electroporation method. Medium was replaced to Opti-MEM 24 hours later, and the serum free media containing secreted proteins were collected 60 hours after electroporation. Conditioned medium was dialyzed against TBS containing 1 mM MgCl2 ad 20 μM ZnCl2 (to remove phosphate) and filtrated with a 2 μm cellulose acetate filter.
[…] TNAP, PLAP and IAP activities were adjusted to an approximate ΔA405 nm, equivalent to 1, measured after 30 min. Residual AP activity in the presence of inhibitors was expressed as percentage of the control activity. To investigate the mechanism of inhibition, double reciprocal plots of enzyme activity (expressed as mA405 nm min^−1) vs. substrate concentration were constructed, in the presence of various concentrations of added inhibitors (0-30 μM). The y-axis intercepts of the 1/v vs. 1/[S] plots, were then plotted vs. [I] to graphically extract Ki values as the x-intercept in this plot. […] Inhibitors were further tested and sorted based on their kinetic properties at pH 7.4 using PPi, the relevant natural substrate of TNAP. […] Amounts of released phosphate were measured using the Biomol Green Reagent (Biomol Research Laboratories, Inc., Plymouth Meeting, Pa.).

[2] = test system: endogenous pyrophosphatase activity in aortic rat rings; assay: PPi hydrolysis by whole aortas ex vivo; conditions: 30 μM; for PPi hydrolysis / % Inhibition: aortic rat rings ex vivo; for % Inhibition: inhibition of PPi hydrolysis
Description: Rats were sacrificed and aortas perfused with Hanks salt solution to remove blood. The aortas were then removed and, after the adventitia was dissected away, were cut into rings approximately 2 mm in length. Four rings were placed in 1 ml of DMEM without serum containing the compounds to be tested. After 90 min at 37° C., sodium PPi (final concentration 1 μM) and [^32P]Pi (final concentration 1 μCurie/ml) were added and 6 samples were removed over 4 hours. Pi was separated from PPi by adding 800 μl of 0.028 M ammonium molybdate in 0.75 M H2SO4 to the samples and extracting with 1600 μl of isobutanol and petroleum ether (4:1). ^32P was counted in the organic phase by Cerenkov radiation. Hydrolysis of PPi was linear over 4 hours and the rate was determined by linear regression.
Furthermore, to measure the degree of pyrophosphatase inhibition by the new TNAP inhibitors, an ex vivo organ culture system in whole aortas was used. For this analysis, rat rather than mouse aortas were selected, as they are larger and easier to dissect.

[3] = test system: Enpp1−/− VSMCs; assay: In vitro calcification (mineralization) of VSMC cultures; format: cell-based, mouse; conditions: Enpp1−/− VSMC culture
Description: Vascular SMCs were isolated from explants using a collagenase digestion method and the smooth muscle phenotype was confirmed by RT-PCR analysis for smooth muscle α-actin. One mouse aorta provided on average, 5×10^5 cells. These cells were cultured (in triplicate) at a density of 3×10^4 cells/cm^2 using α-MEM supplemented with β-glycerophosphate (10 mM) and 50 μg/ml ascorbic acid for 3 weeks. To quantify calcium deposited in these cultures, either the o-cresolphthalein complexone method^(31) or the standard Alizarin Red method was used.

[4] = pH 7.5, 1 M Tris-HCl buffer, pNPP substrate, read-out: Ki (μM) @ pH 7.5
[5] = pH 9.8, 1 M DEA-HCl buffer, pNPP substrate, read-out: Ki (μM) @ pH 9.8

Structure (SMILES) | Ki ([1]; Tables D and E, pH not given, read-out: Ki) [µM] | PPi hydrolysis [2] [nmol/g/min] | % Inhibition [2] [%] | potency at pH 7.5 compared with pH 9.8 [1] | potency relative to levamisole ([1]; Ki at physiological pH) | effect of competitive inhibitor Pi on potency ([1]; pH 7.4, 0.1 mM pNPP, Na2HPO4 0-10 mM) | effect of PPi on degree of inhibition ([1]; pH 7.4, 0.1 mM pNPP, pyrophosphate 0-40 mM) | Ki [1, 4] [µM] | Ki [1, 5] [µM] | suppression of endogenous pyrophosphatase activity (ranking) ([2]; rat whole aortas ex vivo) | inhibition of mineralization [3]
Cn1ccnc1Sc1nc(Nc2ccccc2)nc(Nc2ccccc2)n1 [Compound E1] | 5.6 | – | – | – | – | – | – | – | – | – | –
c1ccc([C@H]2CN3CCSC3=N2)cc1 [levamisole, (6S)-6-phenyl-2,3,5,6-tetrahydro-imidazo[2,1-b][1,3]thiazole, reference compound] | – | 0.252 ± 0.047 | 21.2 | – | – | – | – | – | – | – | –
Cn1ccnc1Sc1nc(Nc2ccccc2)nc(Nc2ccccc2)n1 [compound 5804079] | – | 0.192 ± 0.041 | 39.9 | more potent at pH 7.5 than at pH 9.8 | about 10 fold | does not affect the potency; also recorded: not affected by the presence of the competitive inhibitor Pi | does not affect the degree of inhibition; also recorded: not affected by high concentrations of PPi | 2.8 ± 0.4 | 6.5 ± 1.4 | most effective | most inhibitory
O=C(CSc1nnc[nH]1)NCCOc1ccccc1 | – | 0.249 ± 0.046 | 22.2 | – | – | – | – | 33 ± 5.8 | 5.6 ± 0.7 | – | –
Cn1cnnc1SC(C(=O)c1ccccc1)c1ccccc1 (stereo not drawn) | – | 0.269 ± 0.032 | 15.9 | – | – | – | – | 6.4 ± 1.6 | 5.6 ± 1.6 | – | –
